Like-named read-outs stand apart in the source and are kept apart here.
How the values were obtained:
[1] = biological target: PI3Kα (Homo sapiens (Human), UniProt P42336); conditions: read-out: PI3Kα AlphaScreen ® Ki
[2] = tested on: phosphorylation of Akt at Serine 473 in U87 MG cells; assay: cells; conditions: Homo sapiens, U-87 MG, 2 h
[3] = read-out: U87Cell IC50, pAkt (Ser 473), U87 MG cells, two hours with compound

Chain of PI3Kα (P42336 whole entry): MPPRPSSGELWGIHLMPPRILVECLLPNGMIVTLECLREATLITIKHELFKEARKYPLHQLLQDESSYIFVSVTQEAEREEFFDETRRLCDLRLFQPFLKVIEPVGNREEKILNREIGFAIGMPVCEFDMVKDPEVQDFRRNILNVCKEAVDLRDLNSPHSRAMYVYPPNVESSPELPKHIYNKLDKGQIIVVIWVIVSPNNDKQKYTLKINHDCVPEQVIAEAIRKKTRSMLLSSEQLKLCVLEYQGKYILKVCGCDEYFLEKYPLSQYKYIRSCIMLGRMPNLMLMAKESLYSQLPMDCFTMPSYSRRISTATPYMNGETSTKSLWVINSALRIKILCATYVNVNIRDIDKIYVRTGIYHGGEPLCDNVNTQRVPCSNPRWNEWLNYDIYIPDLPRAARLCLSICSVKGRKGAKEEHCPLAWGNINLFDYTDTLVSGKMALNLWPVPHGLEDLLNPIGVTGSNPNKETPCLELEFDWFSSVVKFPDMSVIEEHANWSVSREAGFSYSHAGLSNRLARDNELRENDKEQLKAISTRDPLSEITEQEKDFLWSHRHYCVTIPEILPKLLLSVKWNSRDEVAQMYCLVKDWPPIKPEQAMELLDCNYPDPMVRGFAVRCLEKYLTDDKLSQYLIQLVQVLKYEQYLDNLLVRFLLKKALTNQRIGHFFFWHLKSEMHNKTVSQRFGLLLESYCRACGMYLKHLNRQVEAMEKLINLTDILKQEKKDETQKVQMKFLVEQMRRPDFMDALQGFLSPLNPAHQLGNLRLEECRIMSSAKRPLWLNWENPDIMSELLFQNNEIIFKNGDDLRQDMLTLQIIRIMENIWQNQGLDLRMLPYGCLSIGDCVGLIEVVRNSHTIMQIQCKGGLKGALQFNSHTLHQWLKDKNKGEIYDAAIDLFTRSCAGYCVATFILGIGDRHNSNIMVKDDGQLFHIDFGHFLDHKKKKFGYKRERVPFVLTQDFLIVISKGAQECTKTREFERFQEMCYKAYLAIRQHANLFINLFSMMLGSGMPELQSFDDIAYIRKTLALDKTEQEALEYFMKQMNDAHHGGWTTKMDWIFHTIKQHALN
Chain of PI3Kα (P27986 whole entry partner): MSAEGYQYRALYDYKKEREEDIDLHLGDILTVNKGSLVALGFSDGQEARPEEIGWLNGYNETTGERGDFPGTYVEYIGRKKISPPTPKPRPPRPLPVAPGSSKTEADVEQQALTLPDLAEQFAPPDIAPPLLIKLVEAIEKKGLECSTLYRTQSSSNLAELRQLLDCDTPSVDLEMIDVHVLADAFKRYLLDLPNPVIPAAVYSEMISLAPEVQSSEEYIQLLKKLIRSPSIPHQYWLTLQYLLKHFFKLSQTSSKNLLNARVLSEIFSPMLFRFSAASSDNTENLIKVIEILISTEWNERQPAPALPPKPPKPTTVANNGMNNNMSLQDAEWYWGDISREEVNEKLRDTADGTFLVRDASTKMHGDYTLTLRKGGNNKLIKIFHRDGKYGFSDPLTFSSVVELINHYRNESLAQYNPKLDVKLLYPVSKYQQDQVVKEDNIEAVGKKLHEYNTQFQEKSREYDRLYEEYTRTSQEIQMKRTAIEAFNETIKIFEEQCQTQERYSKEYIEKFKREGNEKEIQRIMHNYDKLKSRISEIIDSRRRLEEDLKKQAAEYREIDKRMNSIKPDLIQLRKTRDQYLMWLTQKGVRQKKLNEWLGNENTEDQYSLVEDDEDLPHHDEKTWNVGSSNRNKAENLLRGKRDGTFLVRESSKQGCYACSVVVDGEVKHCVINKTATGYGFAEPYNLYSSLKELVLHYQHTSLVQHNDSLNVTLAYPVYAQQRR

| SMILES | Ki [1] [µM] | IC50 [2, 3] [µM] | IC50 ([2]; read-out: U87Cell IC50) [µM] |
| --- | --- | --- | --- |
| Cc1nc(N)nc(-c2cc([C@@H](C)N3CCN(S(C)(=O)=O)CC3)cnc2Nc2ccc(Cl)nc2)n1 [Example 309, (R)-4-(2-(6-chloropyridin-3-ylamino)-5-(1-(4-(methylsulfonyl)piperazin-1-yl)ethyl)pyridin-3-yl)-6-methyl-1,3,5-triazin-2-amine] | 0.044 | 0.046 |  |
| COc1ccc(Nc2ncc(CN3CC4(C3)NC(=O)NC4=O)cc2-c2nc(C)nc(N)n2)cn1 [Example 230, 2-((5-(4-Amino-6-Methyl-1,3,5-Triazin-2-yl)-6-(6-Methoxypyridin-3-Ylamino)Pyridin-3-yl)Methyl)-2,5,7-Triazaspiro[3.4]Octane-6,8-Dione] | 0.068 | 2.47 |  |
| COc1ncc(Nc2ncccc2-c2nc(C)nc(N)n2)cc1Cl [Example 173, 4-(2-(5-Chloro-6-Methoxypyridin-3-Ylamino)Pyridin-3-yl)-6-Methyl-1,3,5-Triazin-2-Amine] | 0.06 | 0.353 |  |
| COCCOc1cnc(Nc2cnc(C)c(NS(C)(=O)=O)c2)c(-c2nc(C)nc(N)n2)c1 [Example 376, N-(5-(3-(4-Amino-6-Methyl-1,3,5-Triazin-2-yl)-5-(2-Methoxyethoxy)Pyridin-2-Ylamino)-2-Methylpyridin-3-yl)Methanesulfonamide] | 0.071 | 0.267 |  |
| COc1ccc(Nc2ncc(OC(F)F)cc2-c2nc(C)nc(N)n2)cn1 [Example 262, 4-(5-(Difluoromethoxy)-2-(6-Methoxypyridin-3-Ylamino)Pyridin-3-yl)-6-Methyl-1,3,5-Triazin-2-Amine] | 0.047 | 0.18 |  |
| COc1ccc(Nc2ncc(N3CC[C@H](O)C3)cc2-c2nc(C)nc3[nH]cnc23)cn1 [Example 205, (3S)-1-(6-((6-Methoxy-3-Pyridinyl)Amino)-5-(2-Methyl-9H-Purin-6-yl)-3-Pyridinyl)-3-Pyrrolidinol] | 0.047 | 0.384 |  |
| COc1ncc(Nc2ncc(CN3CCOC[C@@H]3C)cc2-c2nc(C)nc(N)n2)cc1F [Example 315, (S)-4-(2-(5-Fluoro-6-Methoxypyridin-3-Ylamino)-5-((3-Methylmorpholino)Methyl)Pyridin-3-yl)-6-Methyl-1,3,5-Triazin-2-Amine] | 0.027 | 0.031 |  |
| COc1ncc(Nc2ncc([C@@H](C)N3CCN(S(C)(=O)=O)C[C@@H]3C)cc2-c2cc(N)nc(C)n2)cc1F [Example 306, 6-(2-((5-fluoro-6-methoxy-3-pyridinyl)amino)-5-((1R)-1-((2S)-2-methyl-4-(methylsulfonyl)-1-piperazinyl)ethyl)-3-pyridinyl)-2-methyl-4-pyrimidinamine] | 0.001 | 0.003 |  |
| COc1ccc(Nc2nc3ccccc3cc2-c2nc(C)nc(N)n2)cn1 [Example 238, 3-(4-Amino-6-Methyl-1,3,5-Triazin-2-yl)-N-(6-Methoxypyridin-3-yl)Quinolin-2-Amine] | 0.045 | 0.245 |  |
| COc1ccc(Nc2ncc(C(N)c3ccc(S(=O)(=O)N(C)C)cc3)cc2-c2nc(C)nc(N)n2)cn1 (stereo not drawn) [Example 237, 4-(Amino(5-(4-Amino-6-Methyl-1,3,5-Triazin-2-yl)-6-(6-Methoxypyridin-3-Ylamino)Pyridin-3-yl)Methyl)-N,N-Dimethylbenzenesulfonamide] | 0.018 | 0.046 |  |
| CC(=O)Nc1ccc(Nc2ncc(Cl)cc2-c2nc(C)nc(N)n2)cc1F [Example 266, N-(4-(3-(4-Amino-6-Methyl-1,3,5-Triazin-2-yl)-5-Chloropyridin-2-Ylamino)-2-Fluorophenyl)Acetamide] | 0.155 | 1.1 |  |
| Cc1nc(N)nc(-c2cccnc2Nc2cccc(OC(F)F)c2)n1 [Example 164, 4-(2-(3-(Difluoromethoxy)Phenylamino)Pyridin-3-yl)-6-Methyl-1,3,5-Triazin-2-Amine] | 0.963 | > 10 |  |
| Cc1nc(N)nc(-c2cc(CN3CCN(S(C)(=O)=O)CC3)cnc2Nc2cn[nH]c2)n1 [Example 243, 4-(2-(1H-Pyrazol-4-Ylamino)-5-((4-(Methylsulfonyl)Piperazin-1-yl)Methyl)Pyridin-3-yl)-6-Methyl-1,3,5-Triazin-2-Amine] | 0.163 | 1.52 |  |
| COc1ccc(Nc2ncc(C(C)N3CC(S(C)(=O)=O)C3)cc2-c2nc(C)nc(N)n2)cn1 (stereo not drawn) [Example 308, 4-(2-(6-methoxypyridin-3-ylamino)-5-(1-(3-(methylsulfonyl)azetidin-1-yl)ethyl)pyridin-3-yl)-6-methyl-1,3,5-triazin-2-amine 2,2,2-trifluoroacetate] | 0.019 |  | 0.06 |
| Cc1nc(N)nc(-c2cc([C@@H](C)N3CCN(S(C)(=O)=O)CC3)cnc2Nc2ccc3cccnc3c2)n1 [Example 310, (R)—N-(3-(4-amino-6-methyl-1,3,5-triazin-2-yl)-5-(1-(4-(methylsulfonyl)piperazin-1-yl)ethyl)pyridin-2-yl)quinolin-7-amine 2,2,2-trifluoroacetate] | 0.036 |  | 0.065 |
| Cc1nc(N)nc(-c2cc(CN3CCN(S(C)(=O)=O)CC3)cnc2Nc2ccc3ocnc3c2)n1 [Example 128, N-(3-(4-amino-6-methyl-1,3,5-triazin-2-yl)-5-((4-(methylsulfonyl)piperazin-1-yl)methyl)pyridin-2-yl)benzo[d]oxazol-5-amine] | 0.007 | 0.021 |  |
| COc1ncc(Nc2ncc([C@@H](C)N3CCN(S(C)(=O)=O)CC3)cc2-c2nc(C)nc(N)n2)cc1C(C)C [Example 302, (R)-4-(2-(5-Isopropyl-6-Methoxypyridin-3-Ylamino)-5-(1-(4-(Methylsulfonyl)Piperazin-1-yl)Ethyl)Pyridin-3-yl)-6-Methyl-1,3,5-Triazin-2-Amine] | 0.024 | 0.203 |  |
| Cc1nc(-c2cc(Cc3ccc(S(C)(=O)=O)cc3)cnc2Nc2ccc(N)nc2)c2nc[nH]c2n1 [Example 106, N5-(3-(2-methyl-9H-purin-6-yl)-5-(4-(methylsulfonyl)benzyl)pyridin-2-yl)pyridine-2,5-diamine] | 0.012 | 0.14 |  |
| CC(=O)Nc1ccc(Nc2ncc(CN3CCN(S(C)(=O)=O)CC3)cc2-c2nc(C)nc(N)n2)cn1 [Example 196, N-(5-(3-(4-Amino-6-Methyl-1,3,5-Triazin-2-yl)-5-((4-(Methylsulfonyl)Piperazin-1-yl)Methyl)Pyridin-2-Ylamino)Pyridin-2-yl)Acetamide] | 0.052 | 0.322 |  |
| Cc1nc(N)nc(-c2cc(CN3CCN(S(C)(=O)=O)CC3)cnc2Nc2ccc3ccncc3c2)n1 [Example 326, N-(3-(4-Amino-6-Methyl-1,3,5-Triazin-2-yl)-5-((4-(Methylsulfonyl)Piperazin-1-yl)Methyl)Pyridin-2-yl)Isoquinolin-7-Amine] | 0.068 | 0.057 |  |
| COc1ncc(Nc2nc(-c3cccnc3)ccc2-c2nc(C)nc(N)n2)cc1F [Example 255, 5-(4-Amino-6-Methyl-1,3,5-Triazin-2-yl)-N-(5-Fluoro-6-Methoxypyridin-3-yl)-2,3′-Bipyridin-6-Amine] | 0.004 | 0.037 |  |
| Cc1nc(N)nc(-c2cc(-c3cnn(C)c3)cnc2Nc2cncc(F)c2)n1 [Example 258, 4-(2-(5-Fluoropyridin-3-Ylamino)-5-(1-Methyl-1H-Pyrazol-4-yl)Pyridin-3-yl)-6-Methyl-1,3,5-Triazin-2-Amine] | 0.014 | 0.192 |  |
| Cc1nc(N)nc(-c2cc(CN3CCOCC3)cnc2Nc2ccc3scnc3c2)n1 [Example 129, N-(3-(4-amino-6-methyl-1,3,5-triazin-2-yl)-5-(morpholinomethyl)pyridin-2-yl)benzo[d]thiazol-5-amine] | 0.1 | 0.083 |  |
| COc1ccc(Nc2ncc(CNc3ccncc3)cc2-c2nc(C)nc3[nH]cnc23)cn1 [Example 81, N-(6-methoxypyridin-3-yl)-3-(2-methyl-9H-purin-6-yl)-5-((pyridin-4-ylamino)methyl)pyridin-2-amine] | 0.042 | 0.509 |  |
| Cc1nc(N)nc(-c2cc([C@@H](C)N3CCOCC3)cnc2Nc2cnc(Cl)c(NS(=O)(=O)N(C)C)c2)n1 [Example 373, (R)—N-(5-(3-(4-Amino-6-Methyl-1,3,5-Triazin-2-yl)-5-(1-Morpholinoethyl)Pyridin-2-Ylamino)-2-Chloropyridin-3-yl)-N,N-Dimethylaminosulfamide] | 0.006 | 0.001 |  |
| COc1ccc(Nc2ncc(CN3CCN(C(=O)N(C)C)CC3)cc2-c2nc(C)nc3[nH]cnc23)cn1 [Example 87, 4-((6-(6-Methoxypyridin-3-Ylamino)-5-(2-Methyl-9H-Purin-6-yl)Pyridin-3-yl)Methyl)-N,N-Dimethylpiperazine-1-Carboxamide] | 0.043 | 0.209 |  |
| Cc1nc(N)cc(-c2nccnc2Nc2cccc3[nH]ncc23)n1 [Example 112, N-(3-(6-amino-2-methylpyrimidin-4-yl)pyrazin-2-yl)-1H-indazol-4-amine] | 0.098 | 0.45 |  |
| COc1ccc(Nc2ncc(N3CCC[C@@H]3CO)cc2-c2nc(C)nc3[nH]cnc23)cn1 [Example 101, ((2R)-1-(6-(6-Methoxypyridin-3-Ylamino)-5-(2-Methyl-9H-Purin-6-yl)Pyridin-3-yl)Pyrrolidin-2-yl)Methanol] | 0.04 | 0.293 |  |
| COc1ccc(CNc2cnc(Nc3ccc(OC)nc3)c(-c3nc(C)nc4[nH]cnc34)c2)cc1 [Example 95, N5-(4-methoxybenzyl)-N2-(6-methoxypyridin-3-yl)-3-(2-methyl-9H-purin-6-yl)pyridine-2,5-diamine] | 0.077 | 0.272 |  |
| COc1ccc(Nc2ncc(CN3CC(S(C)(=O)=O)C3)cc2-c2nc(C)nc(N)n2)cn1 [Example 223, 4-(2-(6-Methoxypyridin-3-Ylamino)-5-((3-(Methylsulfonyl)Azetidin-1-yl)Methyl)Pyridin-3-yl)-6-Methyl-1,3,5-Triazin-2-Amine] | 0.006 | 0.028 |  |

Source: patent US8772480B2, “Inhibitors of PI3 kinase and/or mTOR” (priority 2009, dated 2014)
